What was measured:
Test in all cases: Large panel kinase profiling
Format in all cases: biochemical
Details in all cases: 1 μM test article, 1 mM ATP
[1] = biological target: RET (Homo sapiens, UniProt P07949)
Procedure, shortened: (§1)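 Reactions contain 1 mM ATP and 1 μM test article; the CSox peptide sensor reports phosphorylation as fluorescence gain. Temperature is held at 30° C. while signal (360 nm excitation, 485 nm emission) is recorded every 1 min.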

[2] = biological target: NTRK3/TRKC (Homo sapiens, UniProt Q16288)
Procedure, shortened: as §1

[3] = biological target: T1, MARK2 (Homo sapiens, UniProt Q7KZI7)
T1 construct: AssayQuant Technologies, Inc. (assay service)
Procedure, shortened: as §1

[4] = biological target: T2, DAPK2 (Homo sapiens, UniProt Q9UIK4)
T2 construct: AssayQuant Technologies, Inc. (service laboratory)
Procedure, shortened: as §1

[5] = biological target: T3, CAMKK1 (Homo sapiens, UniProt Q8N5S9)
T3 construct: AssayQuant Technologies, Inc. (ran the panel)
Procedure, shortened: as §1

[6] = biological target: AURKB/AURB (Homo sapiens, UniProt Q96GD4)
Procedure, shortened: as §1

[7] = biological target: T4, CSNK1D/CK1D (Homo sapiens, UniProt P48730)
T4 construct: AssayQuant Technologies, Inc. (service laboratory)
Procedure, shortened: as §1

[8] = biological target: T5, CAMKK2 (Homo sapiens, UniProt Q96RR4)
T5 construct: AssayQuant Technologies, Inc. (ran the panel)
T5 sequence (Q96RR4 whole entry, species assumed): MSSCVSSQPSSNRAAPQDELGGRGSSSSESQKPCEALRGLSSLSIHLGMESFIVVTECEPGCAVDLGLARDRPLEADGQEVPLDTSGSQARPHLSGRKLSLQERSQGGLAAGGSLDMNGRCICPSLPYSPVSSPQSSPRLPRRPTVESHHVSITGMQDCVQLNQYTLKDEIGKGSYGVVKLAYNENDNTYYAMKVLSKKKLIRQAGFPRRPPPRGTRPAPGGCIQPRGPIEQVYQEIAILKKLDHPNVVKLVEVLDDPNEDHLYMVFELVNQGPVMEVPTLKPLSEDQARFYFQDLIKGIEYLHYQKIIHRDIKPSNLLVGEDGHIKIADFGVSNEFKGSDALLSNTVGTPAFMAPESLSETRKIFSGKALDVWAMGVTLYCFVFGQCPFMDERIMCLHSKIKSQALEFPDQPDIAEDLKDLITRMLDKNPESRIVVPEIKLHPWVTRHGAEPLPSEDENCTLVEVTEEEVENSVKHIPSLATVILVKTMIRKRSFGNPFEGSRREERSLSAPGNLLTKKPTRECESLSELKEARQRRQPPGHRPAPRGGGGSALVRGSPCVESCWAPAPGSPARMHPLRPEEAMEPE
Procedure, shortened: as §1

[9] = biological target: T6, GSK3B (Homo sapiens, UniProt P49841)
T6 construct: AssayQuant Technologies, Inc. (service provider)
Procedure, shortened: as §1

[10] = biological target: T7, MARK3 (Homo sapiens, UniProt P27448)
T7 construct: AssayQuant Technologies, Inc. (assay service)
T7 sequence (P27448 whole entry, species assumed): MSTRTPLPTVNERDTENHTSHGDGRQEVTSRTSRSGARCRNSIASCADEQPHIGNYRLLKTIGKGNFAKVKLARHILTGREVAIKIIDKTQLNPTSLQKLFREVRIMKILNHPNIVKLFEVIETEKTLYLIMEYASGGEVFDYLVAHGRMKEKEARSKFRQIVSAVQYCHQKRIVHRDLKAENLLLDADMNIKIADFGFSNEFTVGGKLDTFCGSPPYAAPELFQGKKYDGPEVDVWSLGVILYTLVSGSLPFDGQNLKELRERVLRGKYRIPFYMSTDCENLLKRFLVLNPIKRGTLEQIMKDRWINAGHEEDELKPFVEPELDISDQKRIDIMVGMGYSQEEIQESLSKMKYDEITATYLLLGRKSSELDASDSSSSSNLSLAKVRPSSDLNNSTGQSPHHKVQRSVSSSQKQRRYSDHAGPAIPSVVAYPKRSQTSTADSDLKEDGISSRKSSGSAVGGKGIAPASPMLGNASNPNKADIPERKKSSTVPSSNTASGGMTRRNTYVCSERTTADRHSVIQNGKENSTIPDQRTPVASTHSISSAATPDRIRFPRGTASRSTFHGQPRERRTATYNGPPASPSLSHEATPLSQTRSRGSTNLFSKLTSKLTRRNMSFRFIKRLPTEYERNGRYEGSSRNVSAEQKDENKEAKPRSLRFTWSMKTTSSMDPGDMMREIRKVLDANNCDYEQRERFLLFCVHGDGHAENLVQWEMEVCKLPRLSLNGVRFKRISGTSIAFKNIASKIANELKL
Procedure, shortened: as §1

[11] = biological target: CAMK1A (Homo sapiens, UniProt Q14012)
Procedure, shortened: as §1

[12] = biological target: EIF2AK4/GCN2 (Homo sapiens, UniProt Q9P2K8)
Sequence of EIF2AK4/GCN2 (Q9P2K8 whole entry): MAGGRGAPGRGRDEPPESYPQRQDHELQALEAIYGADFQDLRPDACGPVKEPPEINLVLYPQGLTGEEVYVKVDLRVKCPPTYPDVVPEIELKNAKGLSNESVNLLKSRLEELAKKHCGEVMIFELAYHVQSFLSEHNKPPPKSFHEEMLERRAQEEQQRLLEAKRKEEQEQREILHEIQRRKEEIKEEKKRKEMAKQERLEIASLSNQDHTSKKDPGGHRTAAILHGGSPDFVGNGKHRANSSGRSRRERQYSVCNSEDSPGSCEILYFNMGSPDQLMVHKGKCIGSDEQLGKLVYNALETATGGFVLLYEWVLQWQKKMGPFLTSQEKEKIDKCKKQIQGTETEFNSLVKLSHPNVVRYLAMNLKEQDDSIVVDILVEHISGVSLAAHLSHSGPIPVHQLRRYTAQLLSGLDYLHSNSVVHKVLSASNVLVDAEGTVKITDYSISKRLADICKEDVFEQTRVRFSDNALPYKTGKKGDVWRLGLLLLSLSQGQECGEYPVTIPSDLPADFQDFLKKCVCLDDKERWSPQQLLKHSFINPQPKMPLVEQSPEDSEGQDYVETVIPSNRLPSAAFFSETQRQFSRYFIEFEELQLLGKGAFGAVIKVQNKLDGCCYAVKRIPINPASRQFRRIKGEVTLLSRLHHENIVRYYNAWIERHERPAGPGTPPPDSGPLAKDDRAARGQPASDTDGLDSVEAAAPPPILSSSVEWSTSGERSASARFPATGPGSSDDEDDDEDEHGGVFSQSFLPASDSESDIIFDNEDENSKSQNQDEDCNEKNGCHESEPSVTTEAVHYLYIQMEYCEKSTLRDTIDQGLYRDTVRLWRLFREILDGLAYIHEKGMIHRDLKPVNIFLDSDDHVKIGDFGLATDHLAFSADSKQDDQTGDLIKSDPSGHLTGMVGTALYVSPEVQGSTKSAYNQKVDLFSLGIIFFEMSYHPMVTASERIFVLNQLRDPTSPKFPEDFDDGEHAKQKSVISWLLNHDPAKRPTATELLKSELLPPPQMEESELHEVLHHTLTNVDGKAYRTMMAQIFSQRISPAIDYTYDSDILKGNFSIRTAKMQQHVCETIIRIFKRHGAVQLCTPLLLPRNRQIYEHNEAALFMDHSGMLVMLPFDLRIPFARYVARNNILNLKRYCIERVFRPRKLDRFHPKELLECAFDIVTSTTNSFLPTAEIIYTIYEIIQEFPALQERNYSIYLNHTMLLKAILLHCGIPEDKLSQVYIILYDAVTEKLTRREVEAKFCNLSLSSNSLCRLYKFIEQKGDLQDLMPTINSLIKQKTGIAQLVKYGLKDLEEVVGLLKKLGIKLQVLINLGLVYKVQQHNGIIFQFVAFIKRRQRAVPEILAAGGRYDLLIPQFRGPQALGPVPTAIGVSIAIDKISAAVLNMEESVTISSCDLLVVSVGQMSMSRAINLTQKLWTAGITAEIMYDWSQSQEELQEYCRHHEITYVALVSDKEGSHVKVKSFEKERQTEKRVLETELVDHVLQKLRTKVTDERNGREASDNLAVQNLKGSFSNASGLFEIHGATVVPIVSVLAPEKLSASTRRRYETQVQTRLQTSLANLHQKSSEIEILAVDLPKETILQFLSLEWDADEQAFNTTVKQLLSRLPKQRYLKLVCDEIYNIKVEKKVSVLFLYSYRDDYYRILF
Procedure, shortened: as §1

[13] = biological target: PRKCB2/PKCB2 (Homo sapiens, UniProt P05771)
Procedure, shortened: as §1

[14] = biological target: T8, BRSK2 (Homo sapiens, UniProt Q8IWQ3)
T8 sequence (Q8IWQ3 1-736): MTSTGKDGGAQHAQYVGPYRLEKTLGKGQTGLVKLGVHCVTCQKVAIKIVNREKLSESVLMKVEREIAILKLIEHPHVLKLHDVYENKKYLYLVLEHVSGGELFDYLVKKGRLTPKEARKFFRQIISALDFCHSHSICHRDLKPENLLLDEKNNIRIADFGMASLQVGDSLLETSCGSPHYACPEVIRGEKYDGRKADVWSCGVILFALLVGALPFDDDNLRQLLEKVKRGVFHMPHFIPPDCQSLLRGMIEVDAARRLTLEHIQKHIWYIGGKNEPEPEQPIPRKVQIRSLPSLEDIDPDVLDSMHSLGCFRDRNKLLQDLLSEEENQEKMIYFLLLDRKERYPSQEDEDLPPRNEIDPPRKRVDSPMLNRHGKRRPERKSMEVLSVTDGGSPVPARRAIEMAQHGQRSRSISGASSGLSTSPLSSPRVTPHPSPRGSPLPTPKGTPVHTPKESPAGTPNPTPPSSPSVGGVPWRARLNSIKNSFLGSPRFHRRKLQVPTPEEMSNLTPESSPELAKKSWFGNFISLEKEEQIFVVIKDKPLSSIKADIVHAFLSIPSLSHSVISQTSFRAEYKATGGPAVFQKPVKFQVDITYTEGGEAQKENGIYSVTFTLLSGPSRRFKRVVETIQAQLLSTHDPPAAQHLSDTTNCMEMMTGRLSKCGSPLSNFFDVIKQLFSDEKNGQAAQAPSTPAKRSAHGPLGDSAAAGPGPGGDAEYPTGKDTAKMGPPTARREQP
Procedure, shortened: as §1

[15] = biological target: LCK (Homo sapiens, UniProt P06239)
Procedure, shortened: as §1

[16] = biological target: EPHA5 (Homo sapiens, UniProt P54756)
Procedure, shortened: as §1

[17] = biological target: T9, RPS6KA5/MSK1 (Homo sapiens, UniProt O75582)
T9 construct: AssayQuant Technologies, Inc. (contract assay)
T9 sequence (O75582 whole entry): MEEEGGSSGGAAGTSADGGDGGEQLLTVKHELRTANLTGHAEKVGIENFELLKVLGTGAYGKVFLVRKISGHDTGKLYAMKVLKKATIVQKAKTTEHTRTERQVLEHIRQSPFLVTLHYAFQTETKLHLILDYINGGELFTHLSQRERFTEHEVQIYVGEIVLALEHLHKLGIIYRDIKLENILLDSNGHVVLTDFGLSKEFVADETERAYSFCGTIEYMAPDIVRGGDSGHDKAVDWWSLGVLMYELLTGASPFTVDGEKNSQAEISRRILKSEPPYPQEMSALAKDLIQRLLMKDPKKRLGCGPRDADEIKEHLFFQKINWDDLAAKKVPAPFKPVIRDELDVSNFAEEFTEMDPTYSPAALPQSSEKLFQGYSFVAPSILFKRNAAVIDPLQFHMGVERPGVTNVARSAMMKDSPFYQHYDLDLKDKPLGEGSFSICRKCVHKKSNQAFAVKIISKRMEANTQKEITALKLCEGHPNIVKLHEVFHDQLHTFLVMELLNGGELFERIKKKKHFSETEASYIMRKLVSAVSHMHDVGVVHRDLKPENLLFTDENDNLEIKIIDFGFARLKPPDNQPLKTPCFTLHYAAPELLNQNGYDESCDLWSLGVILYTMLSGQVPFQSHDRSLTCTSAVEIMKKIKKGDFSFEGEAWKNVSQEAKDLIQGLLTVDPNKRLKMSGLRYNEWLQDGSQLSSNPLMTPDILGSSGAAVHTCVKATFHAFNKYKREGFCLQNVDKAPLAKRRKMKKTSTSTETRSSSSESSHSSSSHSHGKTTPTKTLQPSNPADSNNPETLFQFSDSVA
Procedure, shortened: as §1

[18] = biological target: T10, TNIK (Homo sapiens, UniProt Q9UKE5)
T10 construct: AssayQuant Technologies, Inc. (contract laboratory that ran the panel)
Procedure, shortened: as §1

Sequence of RET (P07949 29-1114, species assumed): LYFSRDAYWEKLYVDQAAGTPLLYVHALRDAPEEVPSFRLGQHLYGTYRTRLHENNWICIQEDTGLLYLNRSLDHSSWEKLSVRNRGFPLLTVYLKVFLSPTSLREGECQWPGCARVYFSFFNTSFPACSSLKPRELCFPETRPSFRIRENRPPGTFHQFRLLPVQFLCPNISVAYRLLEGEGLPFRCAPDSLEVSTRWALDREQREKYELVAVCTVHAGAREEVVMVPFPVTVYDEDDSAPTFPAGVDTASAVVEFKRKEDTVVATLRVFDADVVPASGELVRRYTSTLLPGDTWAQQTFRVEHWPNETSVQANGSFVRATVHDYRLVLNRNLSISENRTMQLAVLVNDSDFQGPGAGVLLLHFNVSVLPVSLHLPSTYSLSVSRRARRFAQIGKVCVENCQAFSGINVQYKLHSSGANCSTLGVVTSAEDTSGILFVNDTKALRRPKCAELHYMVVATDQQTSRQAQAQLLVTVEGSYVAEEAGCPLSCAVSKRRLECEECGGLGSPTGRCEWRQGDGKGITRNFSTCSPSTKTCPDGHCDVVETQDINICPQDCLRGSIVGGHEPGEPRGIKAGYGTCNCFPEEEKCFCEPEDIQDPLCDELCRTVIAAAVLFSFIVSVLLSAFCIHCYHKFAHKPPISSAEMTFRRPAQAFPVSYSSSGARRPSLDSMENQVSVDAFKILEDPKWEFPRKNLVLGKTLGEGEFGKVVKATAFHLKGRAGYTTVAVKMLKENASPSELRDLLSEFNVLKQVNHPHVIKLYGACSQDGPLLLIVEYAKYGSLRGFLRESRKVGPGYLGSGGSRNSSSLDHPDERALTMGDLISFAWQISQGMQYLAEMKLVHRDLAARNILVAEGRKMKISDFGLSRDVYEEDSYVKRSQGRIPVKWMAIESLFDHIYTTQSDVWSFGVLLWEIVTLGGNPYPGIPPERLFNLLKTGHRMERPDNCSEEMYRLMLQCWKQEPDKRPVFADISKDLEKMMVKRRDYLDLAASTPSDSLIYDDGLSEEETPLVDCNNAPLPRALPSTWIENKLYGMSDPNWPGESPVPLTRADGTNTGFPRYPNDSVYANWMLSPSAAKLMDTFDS

Row | Structure (SMILES) | inhibition at 1 µM [1] [%] | inhibition at 1 µM [2] [%] | inhibition at 1 µM [3] [%] | inhibition at 1 µM [4] [%] | inhibition at 1 µM [5] [%] | inhibition at 1 µM [6] [%] | inhibition at 1 µM [7] [%] | inhibition at 1 µM [8] [%] | inhibition at 1 µM [9] [%] | inhibition at 1 µM [10] [%] | inhibition at 1 µM [11] [%] | inhibition at 1 µM [12] [%] | inhibition at 1 µM [13] [%] | inhibition at 1 µM [14] [%] | inhibition at 1 µM [15] [%] | inhibition at 1 µM [16] [%] | inhibition at 1 µM [17] [%] | inhibition at 1 µM [18] [%]
1 | C=CC(=O)N1CCCC(c2c(F)cc(C(N)=O)c3[nH]c4c(c23)CCCCC4)C1 (single isomer, unassigned) [Compound 5-6] | -24 | -25.7 | 11.8 | -19.1 | 22.2 | -19 | 4.2 | 25.8 | -6 | 1.6 | 24.4 | -20.4 | -32.3 | -31.2 | 0.2 | 8.1 | -20.7 | 9.9
2 | C=CC(=O)N1CCC[C@@H](c2c(F)cc(C(N)=O)c3[nH]c4c(c23)CC2(CC4)CC2)C1 [Compound 6-2, (S)-5-(1-acryloylpiperidin-3-yl)-6-fluoro-1,2,4,9-tetrahydrospiro[carbazole-3,1′-cyclopropane]-8-carboxamide] | 23 | 5.7 | -33.3 | 13.4 | 5.7 | -11.5 | 11.7 | 0.4 | 18.7 | -10.6 | 34.5 | 25.9 | -9.4 | -5.7 | 15.9 | 17 | -4.2 | -29.3
3 | C=CC(=O)N1CCC[C@@H](c2c(F)cc(C(N)=O)c3[nH]c4c(c23)CCC4)C1 [Compound 10-2, (S)-8-(1-acryloylpiperidin-3-yl)-7-fluoro-1,2,3,4-tetrahydrocyclo-penta[b]indole-5-carboxamide] | 6 | 2.9 | -8.8 | 13.9 | 3.7 | -14.9 | 16.5 | 2.6 | -12.5 | -90.5 | 7.9 | 29.1 | -28.2 | 1.8 | 18.3 | -13.5 | -14.5 | -22.9

Reference: patent US20220009920A1 (GB005, Inc., priority 2020, published 2022)
